Experimental data taken from US8557816B2, “Aurora kinase modulators and method of use” (Amgen Inc., priority 2007, dated 2013).

Experiments:
AuroraA-TPX2 = target: T1, AuroraA-TPX2 (Homo sapiens, UniProt O14965); experiment: AuroraA-TPX2 Homogeneous Time Resolved Fluorescent (HTRF) kinase assay; format: biochemical; details: average; read-out: AurA_IC50_IP (uM Avg)
T1 construct: 20 μL of AuroraA-TPX2 KD GST for a final volume of about 41 μL; GST
T1 sequence (O14965 133-383 limits assumed): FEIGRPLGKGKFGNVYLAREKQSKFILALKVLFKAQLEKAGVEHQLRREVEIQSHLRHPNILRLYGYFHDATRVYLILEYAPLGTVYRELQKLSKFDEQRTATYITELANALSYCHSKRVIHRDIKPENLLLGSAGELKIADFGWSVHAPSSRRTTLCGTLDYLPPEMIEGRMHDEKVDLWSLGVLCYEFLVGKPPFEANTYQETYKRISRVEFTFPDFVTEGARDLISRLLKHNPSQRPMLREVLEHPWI
T1 sequence (Q9ULW0 1-43 partner limits assumed): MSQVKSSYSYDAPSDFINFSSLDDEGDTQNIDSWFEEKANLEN
Outline: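 HTRF read-out (Eu 615 nm to APC 655 nm) of phosphorylated biotin-PLK, detected with 0.02 nM europium anti-phosphoPLK antibody and 0.0005 mg/mL SA-APC after overnight equilibration.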

AuroraB = target: T2, AuroraB (Homo sapiens, UniProt Q96GD4); experiment: AuroraB Homogeneous Time Resolved Fluorescent (HTRF) kinase assay; format: biochemical; details: average; read-out: AurB_IC50_IP (uM Avg)
T2 construct: 20 μL of AuroraB FL H is for a final volume of 41 μL; His
Outline: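 Read-out is time-resolved FRET between europium anti-phospho-H3 antibody and streptavidin-APC, added in EDTA buffer to stop the reaction and equilibrated about 60 min (ex 320, em 615 and 655 nm). Preceding reaction: ~90 min, full-length enzyme, ATP, 0.1 μM biotin-Histone H3 substrate, Mg/Mn HEPES buffer pH 7.5.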

T2 sequence (Q96GD4 whole entry): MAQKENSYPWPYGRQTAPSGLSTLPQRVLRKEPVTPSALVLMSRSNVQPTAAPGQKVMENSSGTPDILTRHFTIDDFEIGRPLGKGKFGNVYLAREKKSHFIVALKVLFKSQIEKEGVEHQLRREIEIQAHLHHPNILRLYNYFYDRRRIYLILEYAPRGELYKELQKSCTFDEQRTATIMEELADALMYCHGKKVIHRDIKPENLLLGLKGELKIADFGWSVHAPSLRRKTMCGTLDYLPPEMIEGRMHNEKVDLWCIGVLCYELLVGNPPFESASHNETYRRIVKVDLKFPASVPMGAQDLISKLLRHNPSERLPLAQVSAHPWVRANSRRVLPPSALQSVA

How did the IC50 (AuroraA-TPX2) turn out when `COc1cnc2c(Oc3ccc(Nc4nnc(-c5ccc(C#N)cc5)c5ccccc45)cc3)ccnc2c1` [compound 181, 4-(4-((4-((7-(methyloxy)-1,5-naphthyridin-4-yl)oxy)phenyl)amino)-1-phthalazinyl)benzonitrile] was run?
Its IC50 is 0.171 µM.

What about the IC50 (AuroraB) of the same molecule?
Its IC50 is 0.007 µM.

`COc1cnc2c(Oc3ccc(Nc4nnc(-c5cnc6ccccc6c5)c5ccccc45)cc3)ccnc2c1` [compound 182, N-(4-((7-(methyloxy)-1,5-naphthyridin-4-yl)oxy)phenyl)-4-(3-quinolinyl)-1-phthalazinamine] was tested. Which IC50 (AuroraA-TPX2) did it give?
The IC50 was 0.023 µM.

What about the IC50 (AuroraB) of the same molecule?
Its IC50 is 0.002 µM.

With `COc1cnc2c(Oc3ccc(Nc4nnc(-c5cccc6[nH]ccc56)c5ccccc45)cc3)ccnc2c1` [compound 183, 4-(1H-indol-4-yl)-N-(4-((7-(methyloxy)-1,5-naphthyridin-4-yl)oxy)phenyl)-1-phthalazinamine] as the molecule, how does the IC50 (AuroraA-TPX2) read?
The IC50 was 0.033 µM.

What about the IC50 (AuroraB) of the same molecule?
The IC50 was 0.003 µM.

What does the source list for `Cc1ccsc1-c1nnc(Nc2ccc(Oc3ccnc4cc(C#N)ccc34)cc2)c2ccccc12` [compound 184, 4-((4-((4-(3-methyl-2-thienyl)-1-phthalazinyl)amino)phenyl)oxy)-7-quinolinecarbonitrile]?
IC50 (AuroraA-TPX2): 0.201 µM; IC50 (AuroraB): 0.003 µM

`COc1cnc2c(Oc3ccc(Nc4nnc(-c5sccc5C)c5ccccc45)cc3)ccnc2c1` [compound 185, N-(4-((7-(methyloxy)-1,5-naphthyridin-4-yl)oxy)phenyl)-4-(3-methyl-2-thienyl)-1-phthalazinamine] was tested. Which IC50 (AuroraA-TPX2) did it give?
Its IC50 is 0.231 µM.

What about the IC50 (AuroraB) of the same molecule?
The IC50 was 0.006 µM.

How did the IC50 (AuroraA-TPX2) turn out when `COc1cccc(-c2nnc(Nc3ccc(Oc4ccnc5ccccc45)c(F)c3)c3ccccc23)n1` [compound 186, N-(3-fluoro-4-(4-quinolinyloxy)phenyl)-4-(6-(methyloxy)-2-pyridinyl)-1-phthalazinamine] was run?
The IC50 was 0.059 µM.

What about the IC50 (AuroraB) of the same molecule?
Its IC50 is 0.002 µM.

Which IC50 (AuroraA-TPX2) does the source give for `COc1cnc2c(Oc3ccc(Nc4nnc(-c5ccc(C)cc5)c5ccccc45)cc3F)ccnc2c1` [compound 187, N-(3-fluoro-4-((7-(methyloxy)-1,5-naphthyridin-4-yl)oxy)phenyl)-4-(4-methylphenyl)-1-phthalazinamine] here?
Its IC50 is 0.006 µM.

What about the IC50 (AuroraB) of the same molecule?
Its IC50 is 0.004 µM.

Which IC50 (AuroraA-TPX2) does the source give for `COc1cnc2c(Oc3ccc(Nc4nnc(-c5cc(C)cc(C)c5)c5ccccc45)cc3)ccnc2c1` [compound 188, 4-(3,5-dimethylphenyl)-N-(4-((7-(methyloxy)-1,5-naphthyridin-4-yl)oxy)phenyl)-1-phthalazinamine] here?
The IC50 was 0.017 µM.

And the IC50 (AuroraB)?
The IC50 was 0.006 µM.

Which results are given for `COc1cnc2c(Oc3ccc(Nc4nnc(-c5ncc(C)s5)c5ccccc45)cc3)ccnc2c1` [compound 189, N-(4-((7-(methyloxy)-1,5-naphthyridin-4-yl)oxy)phenyl)-4-(5-methyl-1,3-thiazol-2-yl)-1-phthalazinamine]?
IC50 (AuroraA-TPX2): 0.022 µM; IC50 (AuroraB): 0.009 µM

For `COc1cnc2c(Oc3ccc(Nc4nnc(-c5ccc(F)nc5)c5ccccc45)cc3)ccnc2c1` [compound 190, 4-(6-fluoro-3-pyridinyl)-N-(4-((7-(methyloxy)-1,5-naphthyridin-4-yl)oxy)phenyl)-1-phthalazinamine], which IC50 (AuroraA-TPX2) is on record?
Its IC50 is 0.052 µM.

What about the IC50 (AuroraB) of the same molecule?
The IC50 was 0.005 µM.

What does the source list for `COc1cnc2c(Oc3ccc(Nc4nnc(-c5cccnc5F)c5ccccc45)cc3)ccnc2c1` [compound 191, 4-(2-fluoro-3-pyridinyl)-N-(4-((7-(methyloxy)-1,5-naphthyridin-4-yl)oxy)phenyl)-1-phthalazinamine]?
IC50 (AuroraA-TPX2): 0.104 µM; IC50 (AuroraB): 0.009 µM

What does the source list for `COc1cnc2c(Oc3ccc(Nc4nnc(-c5ccc(F)c(Cl)c5)c5ccccc45)cc3)ccnc2c1` [compound 193, 4-(3-chloro-4-fluorophenyl)-N-(4-((7-(methyloxy)-1,5-naphthyridin-4-yl)oxy)phenyl)-1-phthalazinamine]?
IC50 (AuroraA-TPX2): 0.023 µM; IC50 (AuroraB): 0.005 µM

`COc1cnc2c(Oc3ccc(Nc4nnc(-c5ccc(N(C)C)cc5)c5ccccc45)cc3)ccnc2c1` [compound 194, 4-(4-(dimethylamino)phenyl)-N-(4-((7-(methyloxy)-1,5-naphthyridin-4-yl)oxy)phenyl)-1-phthalazinamine] was tested. Which IC50 (AuroraA-TPX2) did it give?
The IC50 was 0.023 µM.

What about the IC50 (AuroraB) of the same molecule?
The IC50 was 0.01 µM.

What does the source list for `COc1cnc2c(Oc3ccc(Nc4nnc(-c5ccc6sc(C)nc6c5)c5ccccc45)cc3)ccnc2c1` [compound 195, 4-(2-methyl-1,3-benzothiazol-5-yl)-N-(4-((7-(methyloxy)-1,5-naphthyridin-4-yl)oxy)phenyl)-1-phthalazinamine]?
IC50 (AuroraA-TPX2): 0.088 µM; IC50 (AuroraB): 0.005 µM

`CCCc1cc(-c2ccccc2)nnc1Nc1ccc(Oc2ccnc3cc(C#N)ccc23)cc1` [compound 196, 4-((4-((6-phenyl-4-propyl-3-pyridazinyl)amino)phenyl)oxy)-7-quinolinecarbonitrile] was tested. Which IC50 (AuroraA-TPX2) did it give?
Its IC50 is 0.672 µM.

And the IC50 (AuroraB)?
The IC50 was 0.006 µM.

How did the IC50 (AuroraA-TPX2) turn out when `COc1cnc2c(Oc3ccc(Nc4nnc(-c5ccc(N6CCCCC6)cc5)c5ccccc45)cc3)ccnc2c1` [compound 198, N-(4-((7-(methyloxy)-1,5-naphthyridin-4-yl)oxy)phenyl)-4-(4-(1-piperidinyl)phenyl)-1-phthalazinamine] was run?
Its IC50 is 0.128 µM.

And the IC50 (AuroraB)?
Its IC50 is 0.004 µM.

Which IC50 (AuroraA-TPX2) does the source give for `CCc1cc(-c2ccc(C)cc2)nnc1Nc1ccc(Oc2ccnc3cc(OC)cnc23)cc1` [compound 199, 4-ethyl-N-(4-((7-(methyloxy)-1,5-naphthyridin-4-yl)oxy)phenyl)-6-(4-methylphenyl)-3-pyridazinamine] here?
Its IC50 is 0.027 µM.

What about the IC50 (AuroraB) of the same molecule?
Its IC50 is 0.002 µM.

`COc1cnc2c(Oc3ccc(Nc4nnc(-c5ncco5)c5ccccc45)cc3)ccnc2c1` [compound 200, N-(4-((7-(methyloxy)-1,5-naphthyridin-4-yl)oxy)phenyl)-4-(1,3-oxazol-2-yl)-1-phthalazinamine] was tested. Which IC50 (AuroraA-TPX2) did it give?
The IC50 was 0.087 µM.

What about the IC50 (AuroraB) of the same molecule?
The IC50 was 0.003 µM.

What does the source list for `COc1cnc2c(Oc3ccc(Nc4nnc(-c5ccc(Cl)c(Cl)c5)c5ccccc45)cc3)ccnc2c1` [compound 201, 4-(3,4-dichlorophenyl)-N-(4-((7-(methyloxy)-1,5-naphthyridin-4-yl)oxy)phenyl)-1-phthalazinamine]?
IC50 (AuroraA-TPX2): 0.035 µM; IC50 (AuroraB): 0.006 µM

How did the IC50 (AuroraA-TPX2) turn out when `Cn1cncc1-c1cc2nccc(Oc3ccc(Nc4nnc(-c5ccccc5)c5ccccc45)cc3)c2s1` [compound 202, N-(4-((2-(1-methyl-1H-imidazol-5-yl)thieno[3,2-b]pyridin-7-yl)oxy)phenyl)-4-phenyl-1-phthalazinamine] was run?
Its IC50 is 0.02 µM.

What about the IC50 (AuroraB) of the same molecule?
The IC50 was 0.002 µM.

With `Cc1ccc(-c2nnc(Nc3ccc(Oc4ccnc5cc(-c6cncn6C)sc45)cc3)c3ccccc23)cc1` [compound 203, N-(4-((2-(1-methyl-1H-imidazol-5-yl)thieno[3,2-b]pyridin-7-yl)oxy)phenyl)-4-(4-methylphenyl)-1-phthalazinamine] as the molecule, how does the IC50 (AuroraA-TPX2) read?
The IC50 was 0.008 µM.

And the IC50 (AuroraB)?
Its IC50 is 0.002 µM.

Which IC50 (AuroraA-TPX2) does the source give for `COc1cnc2c(Oc3ccc(Nc4nnc(-c5ccc6c(ccn6C)c5)c5ccccc45)cc3)ccnc2c1` [compound 204, 4-(1-methyl-1H-indol-5-yl)-N-(4-((7-(methyloxy)-1,5-naphthyridin-4-yl)oxy)phenyl)-1-phthalazinamine] here?
The IC50 was 0.026 µM.

What about the IC50 (AuroraB) of the same molecule?
The IC50 was 0.003 µM.

Which IC50 (AuroraA-TPX2) does the source give for `CCc1cc(-c2ccc(C)s2)nnc1Nc1ccc(Oc2ccnc3cc(OC)cnc23)cc1` [compound 205, 4-ethyl-N-(4-((7-(methyloxy)-1,5-naphthyridin-4-yl)oxy)phenyl)-6-(5-methyl-2-thienyl)-3-pyridazinamine] here?
The IC50 was 0.06 µM.

What about the IC50 (AuroraB) of the same molecule?
The IC50 was 0.004 µM.

How did the IC50 (AuroraA-TPX2) turn out when `COc1cnc2c(Oc3ccc(Nc4nnc(-c5ccc6cc[nH]c6c5)c5ccccc45)cc3)ccnc2c1` [compound 206, 4-(1H-indol-6-yl)-N-(4-(7-methoxy-1,5-naphthyridin-4-yloxy)phenyl)phthalazin-1-amine] was run?
Its IC50 is 0.017 µM.

And the IC50 (AuroraB)?
Its IC50 is 0.003 µM.
